Values joined by “and” are separate entries in the source; they are usually repeats but may differ in a detail not shown here. Equal entries are not always repeated.
Experiments:
IL-8 = IL-8 production by NHEKs in the inflammatory state (PMA), ELISA; format: cell-based, human; conditions: PMA 10 ng/ml 24 h, compounds 50 μM, dexamethasone 10 μM, relative to PMA induced control (100%)
Description: (§1) The study was carried out on Normal Human Epidermal Keratinocytes (NHEKs) (Lonza, CC-2507, origin: foreskin) in monolayer culture in Epilife medium (Invitrogen, M-EPI-500-A) containing the components of the Human Keratinocyte Growth Supplement (HKGS) mixture (Invitrogen, S-001-K) added separately, except hydrocortisone having anti-inflammatory properties.
For the quantification of IL-8 and PGE2, the inflammatory state of the NHEKs in culture was induced by treatment with PMA (phorbol myristate acetate/10 ng/ml/H2O) for 24 h. Induction of IL-6 was achieved by treatment with PMA (10 ng/ml/H2O) combined with calcium ionophore A23187 (2 μM/DMSO) in medium containing calcium at a concentration of 0.8 mM. […]
(§2) Quantification of the various inflammatory mediators was carried out with specific kits, based on a standard curve, according to the instructions provided by the kits' suppliers, R&D Systems and Cayman Chemical.
Before induction of the inflammatory state, the NHEKs were treated with the compounds and reference molecules for 2 h. The inflammatory state was then induced according to the conditions described in the methodology section, the culture supernatants were collected, and the various inflammatory mediators were quantified by the ELISA technique. […]

PGE2 = PGE2 production by NHEKs in the inflammatory state (PMA), ELISA; format: cell-based, human; conditions: PMA 10 ng/ml 24 h, compounds 50 μM, indomethacin 10 μg/ml, relative to PMA induced control (100%)
Description: as §1
For the quantification of IL-8 and PGE2, the inflammatory state of the NHEKs in culture was induced by treatment with PMA (phorbol myristate acetate/10 ng/ml/H2O) for 24 h. Induction of IL-6 was achieved by treatment with PMA (10 ng/ml/H2O) combined with calcium ionophore A23187 (2 μM/DMSO) in medium containing calcium at a concentration of 0.8 mM. TNF-α secretion was induced by a combination of PMA (10 ng/ml/H2O) and calcium ionophore A23187 (2 μM/DMSO) applied for 24 h (TNF-α) in medium containing 0.06 mM calcium. The reference molecules used are dexamethasone (10 μM/H2O) and indomethacin (10 μg/ml/ethanol).
(§3) The effect of the compounds was studied by applying them to the keratinocyte culture medium 2 h prior to induction of the inflammatory state as well as during induction (2 h for LTB4, 24 h for IL-8, PGE2, IL-6 and TNF-α).
(§4) Each condition was carried out in triplicate cultures and the supernatants were recovered at the end of the various treatments.
as §2
(§5) Before induction of the inflammatory state, the NHEKs were treated with the compounds and reference molecules for 2 h. The inflammatory state was then induced according to the conditions described in the methodology section, the culture supernatants were collected, and the various inflammatory mediators were quantified by the ELISA technique.
The effect of the compounds on PGE2 production is presented in FIG. 5 and is expressed as a percentage of the PMA treatment set at 100%.

IL-6 = IL-6 production by NHEKs in the inflammatory state (PMA + calcium ionophore, 0.8 mM Ca2+), ELISA; format: cell-based, human; conditions: PMA + calcium ionophore A23187, 0.8 mM Ca2+, compounds 50 μM, dexamethasone 10 μM, relative to induced control
Description: as §1
For the quantification of IL-8 and PGE2, the inflammatory state of the NHEKs in culture was induced by treatment with PMA (phorbol myristate acetate/10 ng/ml/H2O) for 24 h. […]
as §2, §5
The effect of the compounds on IL-6 production by NHEKs in the inflammatory state is shown in FIG. 6 and is expressed as a percentage of the treatment with PMA combined with calcium ionophore A23187 (under high-calcium conditions: 0.8 mM Ca2+).

LTB4 = LTB4 production by NHEKs in the inflammatory state (arachidonic acid + calcium ionophore), ELISA; format: cell-based, human; conditions: arachidonic acid 1 μM + calcium ionophore A23187 2 h, compounds 50 μM, NDGA 2 μM, relative to induced control
Description: as §1
The induction of LTB4 production having a very fast kinetics, the scheme was adapted. In this case, the inflammatory state was induced for 2 h by applying arachidonic acid (a.a./1 μM/ethanol) combined with calcium ionophore A23187 (2 μM/DMSO). Nordihydroguaiaretic acid (NDGA) was used as reference molecule (2 μM/ethanol).
as §3, §4, §2, §5
The effects of the compounds on LTB4 production are shown in FIG. 8 and are expressed as a percentage of the treatment with arachidonic acid (a.a.) combined with calcium ionophore A23187 set at 100%.

[1] = system: Normal Human Epidermal Keratinocytes (NHEKs); test: Microscopic observation of NHEK cell survival 48 h after inflammatory treatment; format: cell-based
Description: The cells, treated and not treated by the compounds to be tested, were observed under an optical microscope 48 h after the following inflammatory treatment: 10 ng/mL PMA/H2O+2 μM calcium ionophore A23187/DMSO.
NHEKs were brought into contact or not with the compounds to be tested. After 2 h, the cells underwent or not an inflammation treatment (10 ng/mL PMA/H2O+2 μM calcium ionophore A23187/DMSO).
The cells were observed under an optical microscope 48 h after the inflammatory treatment.

[2] = system: Normal Human Dermal Fibroblasts (NHDFs); test: qRT-PCR gene expression in Normal Human Dermal Fibroblasts; format: cell-based; conditions: 4 μM, 24 h
Description: The study consisted in measuring the effects of compound PAT1657 by qRT-PCR on the expression of 94 genes involved in dermal biology, connective tissue remodelling and ageing.
The protocol consisted in applying compound PAT1657 for 24 h in the culture medium of Normal Human Dermal Fibroblasts (NHDFs) in monolayer and analysing the various RNA populations to identify the genes differentially expressed by real-time qRT-PCR.
The study was carried out on Normal Human Dermal Fibroblasts (NHDFs) (ATCC, CRL-2522, origin: foreskin) at about 40% of their proliferative potential and grown in monolayer in DMEM medium (Invitrogen, 31885-049) containing antibiotics (penicillin/streptomycin, Invitrogen, 15140-122) but not containing serum. The cells were maintained in a humid atmosphere at 37° C. containing 5% CO2.
Compound PAT1657 was applied in the NHDF culture medium for 24 h (n=3). Controls treated with the solvent DMSO (1% for the NHDFs) in which the active agents were prepared were also analysed. At the end of the treatments, total RNA populations were extracted, their integrity was analysed by capillary electrophoresis, and gene expression differences were analysed by qRT-PCR using 96-well TaqMan microfluidic cards (custom produced by Applied Biosystems), targeting key functions of the dermis and epidermis. The technical details of the implementation of the present paragraph are explained in the “Materials and methods” section of Example 1 of patent application FR1650745 and more specifically the sub-section titled “Analysis of gene expression changes” (page 26 line 22 to page 28 line 9).
The gene expression changes induced by the active agents are expressed as relative quantity (RQ) based on the respective DMSO solvent controls.

CCCCCCCCNC(=O)[C@]1(O)C[C@@H](OC(=O)/C=C/c2ccc(O)c(O)c2)[C@@H](O)[C@H](OC(=O)/C=C/c2ccc(O)c(O)c2)C1 [PAT1657, (2E,2′E)-((1R,2S,3R,5S)-2,5-dihydroxy-5-(octylcarbamoyl)cyclohexane-1,3-diyl) bis(3-(3,4-dihydroxyphenyl)acrylate)] was tested, and the IL-8 production (IL-8) was “inhibit/reduce IL-8 production to the baseline level”, the PGE2 production (PGE2) was “very highly significantly decrease” and the IL-6 production (IL-6) was “largest decreases and are more effective than dexamethasone itself”. The LTB4 production (LTB4) was “block/decrease, in a very highly significant manner”, the “Result at 48 h: cell survival” value ([1]; NHEK cultures 48 h after inflammatory treatment (10 ng/mL PMA + 2 μM calcium ionophore A23187), microscopic observation) was “Confluent culture: 100%” and the “effect on cell survival / cellular protection against inflammation” value ([1]; NHEK cultures 48 h after inflammatory treatment, summary in words) was “strong cellular protection against inflammation”. The “expression of gene GSS” value ([2]; in words only) was “overexpressed”, the “RQ (relative expression), gene CCL5” value ([2]; relative to 1% DMSO vehicle) was 28.13 and the “RQ (relative expression), gene DDIT3” value ([2]; relative to 1% DMSO vehicle) was 2.81. The “RQ (relative expression), gene FTL” value ([2]; relative to 1% DMSO vehicle) was 2.1 and 2.08, the “RQ (relative expression), gene GADD45A” value ([2]; relative to 1% DMSO vehicle) was 3.68 and the “RQ (relative expression), gene KLF4” value ([2]; relative to 1% DMSO vehicle) was 1.9 and 1.93. The “RQ (relative expression), gene MMP1” value ([2]; relative to 1% DMSO vehicle) was 6.9 and 6.91, the “RQ (relative expression), gene MMP3” value ([2]; relative to 1% DMSO vehicle) was 3.1 and 3.12 and the “RQ (relative expression), gene MTNR1A” value ([2]; relative to 1% DMSO vehicle) was 1.46. The “RQ (relative expression), gene NANOG” value ([2]; relative to 1% DMSO vehicle) was 4.7 and 4.67, the “RQ (relative expression), gene NOX1” value ([2]; relative to 1% DMSO vehicle) was 1.46 and the “RQ (relative expression), gene POU5F1” value ([2]; relative to 1% DMSO vehicle) was 5.1. For the same compound, the “RQ (relative expression), gene RBP2” value ([2]; relative to 1% DMSO vehicle) was 1.46, the “RQ (relative expression), gene RORA” value ([2]; relative to 1% DMSO vehicle) was 4.4 and 4.41 and the “RQ (relative expression), gene SIRT1” value ([2]; relative to 1% DMSO vehicle) was 2.02. The “RQ (relative expression), gene SOD2” value ([2]; relative to 1% DMSO vehicle) was 4.7 and 4.66, the “RQ (relative expression), gene TXNRD1” value ([2]; relative to 1% DMSO vehicle) was 2.8 and 2.82 and the “RQ (relative expression), gene VEGFA” value ([2]; relative to 1% DMSO vehicle) was 8.3 and 8.28.
